Assay results: patent US20250122174A1 (Shenzhen Yuanli Shenwan Innovative Medicine Co., Ltd., priority 2022, published 2025)

Target: HPK1 (Homo sapiens (Human), UniProt Q92918)
Test: HPK1 Inhibition Assay (ADP-Glo kinase assay)
Format: biochemical
Settings: ATP 10 μM
Summary of the method: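 ADP-Glo luminescence read-out after 1 h room-temperature kinase reaction with 10 μM ATP and 0.1 μg/ml MBP. Recombinant human HPK1 at 7.5 ng/μl; buffer 40 mM Tris pH 7.5, 20 mM MgCl2. Compounds serially diluted 5-fold over 10 points from 10 mM DMSO stock.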

Sequence of HPK1 (Q92918 1-346 limits assumed): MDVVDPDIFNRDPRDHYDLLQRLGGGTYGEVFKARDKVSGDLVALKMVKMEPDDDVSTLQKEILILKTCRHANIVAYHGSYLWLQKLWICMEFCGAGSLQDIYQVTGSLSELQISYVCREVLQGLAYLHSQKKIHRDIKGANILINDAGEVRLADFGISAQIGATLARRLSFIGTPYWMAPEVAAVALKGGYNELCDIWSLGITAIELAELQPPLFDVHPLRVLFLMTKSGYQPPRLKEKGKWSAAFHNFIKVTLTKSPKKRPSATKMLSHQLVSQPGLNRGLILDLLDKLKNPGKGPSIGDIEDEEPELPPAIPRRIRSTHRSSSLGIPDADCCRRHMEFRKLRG

| Structure (SMILES) | IC50 |
| --- | --- |
| CC(C)c1nc2c(N3CC[C@@H](O)C3)c(NC(=O)c3ccc(=O)n(-c4c(F)cccc4F)n3)ccc2n1C [Example 117, (R)-1-(2,6-difluorophenyl)-N-(4-(3-hydroxypyrrolidin-1-yl)-2-isopropyl-1-methyl-1H-benzo[d]imidazol-5-yl)-6-oxo-1,6-dihydropyridazine-3-carboxamide] | < 100 nM |
| CC(C)c1nc2c(N3CC4[C@@H](N)[C@@H]4C3)c(NC(=O)c3ccc(=O)n(-c4c(F)cccc4F)n3)ccc2n1C (stereo partly drawn) [Example 118, N-(4-((1R,5S,6s)-6-amino-3-azabicyclo[3.1.0]hexan-3-yl)-2-isopropyl-1-methyl-1H-benzo[d]imidazol-5-yl)-1-(2,6-difluorophenyl)-6-oxo-1,6-dihydropyridazine-3-carboxamide] | < 100 nM |
| CC(C)c1nc2c(N3CC4C(N)C4C3)c(NC(=O)c3ccc(=O)n(-c4c(F)cccc4F)n3)ccc2n1C [Example 119, N-(4-((1R,5S,6r)-6-amino-3-azabicyclo[3.1.0]hexan-3-yl)-2-isopropyl-1-methyl-1H-benzo[d]imidazol-5-yl)-1-(2,6-difluorophenyl)-6-oxo-1,6-dihydropyridazine-3-carboxamide] | < 100 nM |
| CC(C)c1nc2c(N3CC[C@@H](N)C3)c(NC(=O)c3nn(-c4c(F)cccc4F)c(=O)cc3Cl)ccc2n1C [Example 120, (R)-N-(4-(3-aminopyrrolidin-1-yl)-2-isopropyl-1-methyl-1H-benzo[d]imidazol-5-yl)-4-chloro-1-(2,6-difluorophenyl)-6-oxo-1,6-dihydropyridazine-3-carboxamide] | < 100 nM |
| CC[C@@]1(N)CCN(c2c(NC(=O)c3ccc(=O)n(-c4c(F)cccc4F)n3)ccc3c2nc(C(C)C)n3C)C1 [Example 121, (R)-N-(4-(3-amino-3-ethylpyrrolidin-1-yl)-2-isopropyl-1-methyl-1H-benzo[d]imidazol-5-yl)-1-(2,6-difluorophenyl)-6-oxo-1,6-dihydropyridazine-3-carboxamide] | < 100 nM |
| CC[C@]1(N)CCN(c2c(NC(=O)c3ccc(=O)n(-c4c(F)cccc4F)n3)ccc3c2nc(C(C)C)n3C)C1 [Example 122, (S)-N-(4-(3-amino-3-ethylpyrrolidin-1-yl)-2-isopropyl-1-methyl-1H-benzo[d]imidazol-5-yl)-1-(2,6-difluorophenyl)-6-oxo-1,6-dihydropyridazine-3-carboxamide] | < 100 nM |
| CC(C)c1nc2c(N3CC[C@@](C)(N)C3)c(NC(=O)c3ccc(=O)n(-c4c(F)cccc4F)n3)ccc2n1C [Example 123, (R)-N-(4-(3-amino-3-methylpyrrolidin-1-yl)-2-isopropyl-1-methyl-1H-benzo[d]imidazol-5-yl)-1-(2,6-difluorophenyl)-6-oxo-1,6-dihydropyridazine-3-carboxamide] | < 100 nM |
| CC(C)c1nc2c(N3CC[C@@H](N(C)C)C3)c(NC(=O)c3ccc(=O)n(-c4c(F)cccc4F)n3)ccc2n1C [Example 126, (R)-1-(2,6-difluorophenyl)-N-(4-(3-(dimethylamino)pyrrolidin-1-yl)-2-isopropyl-1-methyl-1H-benzo[d]imidazol-5-yl)-6-oxo-1,6-dihydropyridazine-3-carboxamide] | < 100 nM |
| CN[C@@H]1CCN(c2c(NC(=O)c3ccc(=O)n(-c4c(F)cccc4F)n3)ccc3c2nc(C(C)C)n3C)C1 [Example 127, (R)-1-(2,6-difluorophenyl)-N-(2-isopropyl-1-methyl-4-(3-(methylamino)pyrrolidin-1-yl)-1H-benzo[d]imidazol-5-yl)-6-oxo-1,6-dihydropyridazine-3-carboxamide] | < 100 nM |
| CC(C)c1nc2c(N3CC[C@@H](NC(=O)CCN)C3)c(NC(=O)c3ccc(=O)n(-c4c(F)cccc4F)n3)ccc2n1C [Example 128, (R)-N-(4-(3-(3-aminopropanamido)pyrrolidin-1-yl)-2-isopropyl-1-methyl-1H-benzo[d]imidazol-5-yl)-1-(2,6-difluorophenyl)-6-oxo-1,6-dihydropyridazine-3-carboxamide] | < 100 nM |
